PMC7318222, “A Family of Water‐Immiscible, Dipolar Aprotic, Diamide Solvents from Succinic Acid” (Chemsuschem, 2020)

How the values were obtained:
[1] = Miscibility with water; assay type: physicochemical; settings: this work
[2] = Miscibility with hexane; assay type: physicochemical; settings: this work

Question: Which Water misc. [1] does the source give for `CN(C)C=O` [DMF, N,N‐dimethylformamide] here?
Answer: yes^[a]

Question: And the Hexane misc. [2]?
Answer: no^[a]
